Series [1] concerns Rhesus monkey. Description: Half life in monkey at 10 mg/kg, po. The class given is ADME, organism-based, Macaca mulatta. Also on record: dose 10 mg/kg, route oral. The conditions noted are these: in vivo.
The subject of series [2] is Canis familiaris. Description: Cardiotoxicity in dog at 100 mg/kg, po after 14 days. It is filed as toxicity, organism-based, Canis lupus familiaris. Also noted: dose 100 mg/kg, route oral. The note with it: in vivo, 336 h.
Series [3] in a line: Half life in dog at 3 mg/kg, po. It is filed as ADME, organism-based, Canis lupus familiaris. Also noted: dose 3 mg/kg, route oral. The conditions noted are these: in vivo.
Series [4] can be described thus: Clearance in monkey at 1 mg/kg, iv. The class given is ADME, organism-based, Macaca mulatta. The note with it: rhesus monkey, in vivo. Also noted: dose 1 mg/kg, route intravenous.
The nature of series [5]: Clearance in dog at 1 mg/kg, iv. The note with it: in vivo. It is filed as ADME, organism-based, Canis lupus familiaris. Also noted: dose 1 mg/kg, route intravenous.
A short description of series [6]: Clearance in rat at 1 mg/kg, iv. The class given is ADME, organism-based. Also on record: dose 1 mg/kg, route intravenous. The conditions noted are these: in vivo.
Series [7] in a line: Bioavailability in rat at 1 mg/kg, iv. The class given is ADME, organism-based. The note with it: in vivo.
The nature of series [8]: Bioavailability in dog at 1 mg/kg, iv. The class given is ADME, organism-based, Canis lupus familiaris. The note with it: in vivo.
In series [9] the test system is Salmonella typhimurium. Description: Genotoxicity in Salmonella Typhimurium by Ames test. It is filed as toxicity, organism-based. The conditions noted are these: salmonella enterica subsp. enterica serovar typhimurium. (In general: The Ames test uses bacterial strains that need an amino acid and regain growth without it when mutated back.)
The nature of series [10]: Bioavailability in monkey at 1 mg/kg, iv. The note with it: rhesus monkey, in vivo. It is filed as ADME, organism-based, Macaca mulatta.
The nature of series [11]: in vivo. The conditions noted are these: dog, plasma, po, 3 mg/kg.
Series [12] relates to Rattus norvegicus. Description: Toxicity in rat at 100 mg/kg, po after 14 days. It is filed as organism-based. Also noted: dose 100 mg/kg, route oral. The conditions noted are these: in vivo, 336 h.
In series [13] the test system is Human immunodeficiency virus 1. In words: microbe, parasite or virus in culture. The note with it: Human immunodeficiency virus 1, Ba-L.
Description: Antiviral activity against R5 tropic HIV1 Ba-L infected PBMC assessed as inhibition of viral p24 antigen expression
A short description of series [14]: in vivo. The note with it: dog, po, 3 mg/kg.

Experimental findings from ChEMBL document CHEMBL1811891 (Bioorg Med Chem, 2011) are described below.

For orientation: half-life means how long it takes for the measured level to halve. A word on the clearance: it is a measure of how efficiently the substance is removed, as volume per time. Usually bioavailability stands for dose-corrected exposure relative to a reference, in per cent. The term AUC denotes the area under the concentration-time curve, a measure of exposure. In general, IC90 refers to the point of the concentration-response curve where the effect stands at 90%. Usually Cmax stands for the highest concentration seen after dosing.

Consider `CCCCN1C(=O)[C@@H]([C@H](O)C2CCCCC2)NC(=O)C12CCN(Cc1ccc(Oc3ccc(C(=O)O)cc3)cc1)CC2.Cl` [APLAVIROC HYDROCHLORIDE], for which the t1/2 in [1] stood at 24.4 h. The Activity result in series [2], in series [9] and in series [12] was “Non-toxic” in each case. Further, the half-life in series [3] was determined as 4.5 h. For the same compound, the figures for the clearance in series [4], in [5] and in series [6] were 15 mL/min, 33 mL/min and 10 mL/min, respectively. Also, the bioavailability in series [7] worked out at 23%; in [8] it was 12%; in [10] it was 4.6%. Further, in series [11], the AUC is 189 ng·h/mL. Moreover, the IC90 in [13] was 12 nM. In [14], this compound showed a Cmax of 135 ng/mL.
